# Tests used:
# HCT116 cells = assay: Growth inhibitory activity on HCT116 cell (CellTiter-Glo); format: cell-based; conditions: Homo sapiens, HCT-116, 72 h; test compound 1 μM, 3 days; read-out: HCT116 cell proliferation inhibitory rate (%) at 1 μM
# Method: The growth inhibitory activity of the compound on HCT116 cell was evaluated by the following method.
# HCT116 cells were seeded in a 384 well blackplate at 900 cells/[…]/well, and maintained in an assay medium (RPMI medium (Wako) containing 2% fetal bovine serum, 50 Unit/mL penicillin and […] streptomycin (Invitrogen)). The next day, a test compound dissolved in dimethyl sulfoxide (DMSO) was diluted with the assay medium, and the obtained compound solution was added by […] to each well of a plate containing HCT116 cells, and incubated at 37° C., 5% CO2 (test compound addition group).
# A similar reaction was performed without adding a test compound (test compound non-addition group).
# Furthermore, a similar reaction was performed under the conditions without adding HCT116 cell and a test compound (control group).
# After 3 days, […] of a CellTiter-Glo reagent (Promega KK) was added to the well, and the mixture was stirred for 10 min. Thereafter, the luminescence value of each well was measured by the EnVision™ multilabel counter (Perkin Elmer Inc.).
# The HCT116 cell proliferation inhibitory rate (%) of the test compound was determined by the following calculation formula. (1−(luminescence of test compound addition group−luminescence of control group)÷(luminescence of test compound non-addition group−luminescence of control group))×100
# The HCT116 cell proliferation inhibitory rates (%) of the test compound (1 μM) are shown below.
# Human ACC1 = target: T1, Human ACC1 (Homo sapiens, UniProt Q13085); assay: Measurement of ACC1 inhibitory activity (Malonyl-CoA produced, RapidFire-mass spectrometry); format: biochemical; conditions: 10 μM of the test compound; read-out: ACC1 inhibitory rate (%) at 10 μM
# T1 construct: His6 (from vector pFAST-BacHTc; purified on Ni-NTA) (N); made in house; host or cells: SF-9 insect cells, recombinant baculovirus BAC-ACC1
# Method: (1) Cloning of Human ACC1 Gene and Preparation of Recombinant Baculovirus
# Human ACC1 gene was cloned by PCR using a human liver cDNA library (Clontech) as a template and Primer 1 and Primer 2 shown below. Primer 1 and Primer 2 were prepared by adding SalI, NotI restriction enzyme recognition sequences based on the information of the base sequence of human ACC1 gene (Genbank Accession U19822).
# PCR was performed using Pyrobest DNA polymerase (TAKARA BIO INC.). The obtained PCR product was cloned to pT7 Blue vector (Novagen) and after confirmation of the base sequence, digested with restriction enzymes SalI and […]. The obtained DNA fragment was inserted into pFAST-BacHTc (Invitrogen) digested with restriction enzymes SalI and […] to give expression plasmid ACC1/pFAST-BacHTc.
# Using the expression plasmid ACC1/pFAST-BacHTc and BAC-TO-BAC Baculovirus Expression System (Invitrogen), virus stock BAC-ACC1 of recombinant Baculovirus was prepared.
# (2) Preparation of ACC1 Protein
# SF-9 cells (Invitrogen) were inoculated to a medium (10 L) for insect cells (Sf-900IISFM medium (Invitrogen) containing 5% fetal bovine serum (Trace), 50 mg/L Gentamicin (Wako Pure Chemical Industries, Ltd.) and 0.1% Pluronic F-68 (Invitrogen)) at 1.0×10^6 cells/mL, and cultured with shaking in Wave Bioreactor (GE Healthcare) at 27° C., 20 rpm, rocking angle 100, oxygen concentration 30%.
# On day 2 of the culture, recombinant Baculovirus BAC-ACC1 was added, and the cells were cultured for 3 days. The culture medium was centrifuged at 4000×g for 10 min to give virus-infected cells. The cells were washed with phosphate buffered saline (Invitrogen) and centrifuged under the same conditions. The obtained cells were cryopreserved at −80° C.
# The cryopreserved cells were thawed in ice, and suspended in 800 mL of 25 mM HEPES buffer (pH 7.5) containing 10% Glycerol, 0.3 M NaCl, 1 mM EDTA, 25 mM Sodium β-Glycerophosphate and 1 mM Sodium Orthovanadate, and supplemented with Complete Protease Inhibitor (Roche). The obtained suspension was homogenized two times in a polytron homogenizer (Kinematica) at 20,000 rpm for 20 sec. The obtained cell disruption solution was clarified by centrifugation at 186,000×g for 60 min, and the supernatant was passed through Ni-NTA Superflow Cartridges (5 mL) (QUIAGEN). Furthermore, it was washed with 25 mM HEPES buffer (pH 7.5) containing 20 mM Imidazole and 0.3 M NaCl, and eluted with 25 mM HEPES buffer (pH 7.5) containing 250 mM Imidazol and 0.3 M NaCl. The eluate was concentrated by Amicon Ultra-15 (Nihon Millipore K.K.) having a fraction molecular weight of 50K. The obtained concentrate was subjected to gel filtration with 50 mM HEPES buffer (pH 7.5) containing 10 mM MgCl2, 2 mM dithiothreitol, 10 mM tripotassium citrate and 0.3 M NaCl by using HiLoad 26/60 Superdex200 prep grade gel filtration column (GE Healthcare) to give ACC1. The obtained ACC1 was cryopreserved at −80° C.
# (3) Measurement of ACC1 Inhibitory Activity
# ACC1 obtained in the above-mentioned (2) was diluted with an enzyme reaction buffer (50 mM HEPES (pH 7.5), 10 mM MgCl2, 10 mM Tripottasium Citrate, 2 mM Dithiothreitol, 0.001% Fatty acid free BSA) to a concentration of 0.2 μg/ml, and the mixture was added to each well of a 384 well assay plate by 10 μl. A test compound dissolved in dimethyl sulfoxide (DMSO) was diluted with an enzyme reaction buffer, and the resulting solution (5 μl) was added to each well. The mixture was incubated at room temperature for 60 min. Then, a substrate solution (50 mM KHCO3, 200 μM ATP, 200 μM Acetyl-CoA, 5 μl) was added to each well, and the mixture was reacted at room temperature for 30 min. The reaction was quenched by adding a reaction quenching liquid (1.3% formic acid, 0.2 μM Malonyl-^13C3-CoA) by 60 μL each to the obtained reaction mixtures (test compound addition group).
# In addition, a reaction was performed in the same manner as above and without adding the test compound (test compound non-addition group). […]
inhibition at 10 µM (Human ACC1) [%],Structure (SMILES),inhibition at 1 µM (HCT116 cells) [%]
99,"CC(=O)N[C@@H](C)COc1cnc(-c2ccc(Oc3cccc(OCC4CC4)c3)cc2)o1 [Example 30, N-((2S)-1-((2-(4-(3-(cyclopropylmethoxy)phenoxy)phenyl)-1,3-oxazol-5-yl)oxy)propan-2-yl)acetamide]",28
99,"CC(=O)NC(C)CC(=O)c1cnc(-c2ccc(Oc3cccc(OCC4CC4)c3)cc2)o1 (stereo not drawn) [Example 64, N-(4-(2-(4-(3-(cyclopropylmethoxy)phenoxy)phenyl)-1,3-oxazol-5-yl)-4-oxobutan-2-yl)acetamide]",35
92,"CC(=O)N[C@@H](C)COc1cc(-c2ccc(Oc3cccc(OCC4CC4)c3)cc2)no1 [Example 67, N-((2S)-1-((3-(4-(3-(cyclopropylmethoxy)phenoxy)phenyl)-1,2-oxazol-5-yl)oxy)propan-2-yl)acetamide]",29
100,"CC(=O)N[C@@H](C)COc1cnc(-c2ccc(Oc3cccc(OCC4CC4)c3)nc2)o1 [Example 99, N-((2S)-1-((2-(6-(3-(cyclopropylmethoxy)phenoxy)pyridin-3-yl)-1,3-oxazol-5-yl)oxy)propan-2-yl)acetamide]",–
98,"C[C@@H](COc1cnc(-c2ccc(Oc3cccc(OCC4CC4)c3)nc2)o1)NC(N)=O [Example 101, 1-((2S)-1-((2-(6-(3-(cyclopropylmethoxy)phenoxy)pyridin-3-yl)-1,3-oxazol-5-yl)oxy)propan-2-yl)urea]",–
100,"CC(=O)N[C@@H](C)COc1cnc(-c2ccc(Oc3cccc(OCC4CC4)c3)cn2)o1 [Example 102, N-((2S)-1-((2-(5-(3-(cyclopropylmethoxy)phenoxy)pyridin-2-yl)-1,3-oxazol-5-yl)oxy)propan-2-yl)acetamide]",–
95,"C[C@@H](COc1cnc(-c2ccc(Oc3cccc(OCC4CC4)c3)cn2)o1)NC(N)=O [Example 104, 1-((2S)-1-((2-(5-(3-(cyclopropylmethoxy)phenoxy)pyridin-2-yl)-1,3-oxazol-5-yl)oxy)propan-2-yl)urea]",–
100,"CC(=O)NC(C)CC(=O)c1cnc(-c2ccc(Oc3cccc(OCC4CC4)c3)nc2)o1 (stereo not drawn) [Example 105, N-(4-(2-(6-(3-(cyclopropylmethoxy)phenoxy)pyridin-3-yl)-1,3-oxazol-5-yl)-4-oxobutan-2-yl)acetamide]",–
98,"CC(=O)N[C@@H](C)COc1cnc(-c2cnc(Oc3cccc(OCC4CC4)c3)cc2C)o1 [Example 106, N-((2S)-1-((2-(6-(3-(cyclopropylmethoxy)phenoxy)-4-methylpyridin-3-yl)-1,3-oxazol-5-yl)oxy)propan-2-yl)acetamide]",–

# More lines, now with the values behind:
Structure (SMILES),inhibition at 10 µM (Human ACC1) [%],inhibition at 1 µM (HCT116 cells) [%]
"CC(=O)NC(C)c1ccc(OCc2ccc(Oc3cccc(OCC4CC4)c3)cc2F)cc1 (stereo not drawn) [Example 19, N-(1-(4-((4-(3-(cyclopropylmethoxy)phenoxy)-2-fluorobenzyl)oxy)phenyl)ethyl)acetamide]",83,15
"CC(=O)NC(C)CCc1cnc(-c2ccc(Oc3cccc(OCC4CC4)c3)cc2)o1 (stereo not drawn) [Example 32, N-(4-(2-(4-(3-(cyclopropylmethoxy)phenoxy)phenyl)-1,3-oxazol-5-yl)butan-2-yl)acetamide]",97,30
"CC(=O)NC(C)c1cnc(OCc2ccc(Oc3cccc(OCC4CC4)c3)cc2F)cn1 (stereo not drawn) [Example 35, N-(1-(5-((4-(3-(cyclopropylmethoxy)phenoxy)-2-fluorobenzyl)oxy)pyrazin-2-yl)ethyl)acetamide]",78,–
"CC(=O)NC(C)c1ccc(OCc2c(F)cc(Oc3cccc(OCC4CC4)c3)cc2F)cc1 (stereo not drawn) [Example 39, N-(1-(4-((4-(3-(cyclopropylmethoxy)phenoxy)-2,6-difluorobenzyl)oxy)phenyl)ethyl)acetamide]",82,26
"CC(=O)NC(C)c1ccc(OCc2ccc(Oc3cccc(OCC4CC4)c3)cc2F)nc1 (stereo not drawn) [Example 42, N-(1-(6-((4-(3-(cyclopropylmethoxy)phenoxy)-2-fluorobenzyl)oxy)pyridin-3-yl)ethyl)acetamide]",85,10
"CC(=O)NC(C)c1cnc(OCc2c(F)cc(Oc3cccc(OCC4CC4)c3)cc2F)cn1 (stereo not drawn) [Example 43, N-(1-(5-((4-(3-(cyclopropylmethoxy)phenoxy)-2,6-difluorobenzyl)oxy)pyrazin-2-yl)ethyl)acetamide]",94,–
"CC(=O)NC(C)CCc1cc(-c2ccc(Oc3cccc(OCC4CC4)c3)cc2)no1 (stereo not drawn) [Example 46, N-(4-(3-(4-(3-(cyclopropylmethoxy)phenoxy)phenyl)-1,2-oxazol-5-yl)butan-2-yl)acetamide]",95,20
"CC(=O)NC(C)CCc1ccn(-c2ccc(Oc3cccc(OCC4CC4)c3)cc2)n1 (stereo not drawn) [Example 48, N-(4-(1-(4-(3-(cyclopropylmethoxy)phenoxy)phenyl)-1H-pyrazol-3-yl)butan-2-yl)acetamide]",96,14
"CC(=O)NC(C)c1ccc(OCc2c(F)cc(Oc3cccc(OCC4CC4)c3)cc2F)nc1 (stereo not drawn) [Example 68, N-(1-(6-((4-(3-(cyclopropylmethoxy)phenoxy)-2,6-difluorobenzyl)oxy)pyridin-3-yl)ethyl)acetamide]",96,25
"CC(=O)NC(C)c1ccc(OCc2c(F)cc(Oc3cccc(OCC4CC4)c3)cc2F)cn1 (stereo not drawn) [Example 69, N-(1-(5-((4-(3-(cyclopropylmethoxy)phenoxy)-2,6-difluorobenzyl)oxy)pyridin-2-yl)ethyl)acetamide]",96,28
"CC(=O)NC(C)c1cnc(OCc2c(F)cc(Oc3cccc(OCC4CC4)c3)cc2F)c(F)c1 (stereo not drawn) [Example 73, N-(1-(6-((4-(3-(cyclopropylmethoxy)phenoxy)-2,6-difluorobenzyl)oxy)-5-fluoropyridin-3-yl)ethyl)acetamide]",98,31
"CC(=O)NC(C)CC(=O)c1cnn(-c2ccc(Oc3cccc(OCC4CC4)c3)nc2)c1 (stereo not drawn) [Example 103, N-(4-(1-(6-(3-(cyclopropylmethoxy)phenoxy)pyridin-3-yl)-1H-pyrazol-4-yl)-4-oxobutan-2-yl)acetamide]",98,–

# Source: patent US10252997B2, “Monocyclic compound” (Takeda Pharmaceutical Company Limited, priority 2015, dated 2019)
